Marks after values point to notes of the source that are not given here.
Legend:
[1] = Ferric reducing antioxidant power (FRAP) assay; settings: compounds at 50 μM; Trolox equivalent
Description: The FRAP assay was determined in accordance with the instructions for the FRAP kit. The total antioxidant activity values were estimated using the Trolox equivalent antioxidant capacity test. Initially, the detection concentration of methanolic extract and different fractions was 80 μg/mL, and the detection concentration of compounds (1–23) was 50 μM. Then, 190 μL of FRAP working reagent was mixed with 10 μL sample and incubated at room temperature for 20 min. The absorbance was then measured using a microplate reader at 593 nm, and the scavenging activity was calculated according to Equation (3). The blank control group used DMSO to replace the sample. […] The analysis was performed in triplicates, 0.8054, 0.0134 was a constant.

TNF-α = TNF-α secretion in LPS-stimulated RAW 264.7 macrophages (ELISA); assay type: cell-based, mouse; settings: 40 µM, LPS 1 µg/mL, 48 h, vs model control (p < 0.01)
Description: In order to increase cytokine production, macrophages were treated with LPS at a final concentration of 1 µg/mL, and then with T. grandis compounds at 40 µM. The compounds were solubilized in DMEM medium containing 0.1% DMSO. Dexamethasone was employed as a positive control (5 µg/mL). A centrifuge was used to separate the supernatant from the cells after 48 h of incubation, with three replicates per group. Quantification of TNF-α, IL-1β and IL-6 secretion was achieved by following the ELISA manufacturer's instructions. Then, absorbance was measured at 450 nm. Relative TNF-α, IL-1β and IL-6 expression was calculated according to Equation (4). Following the inflammatory factor test, cell viability was detected by CellTiter96® Aqueous One Solution Cell Proliferation Assay. Then, 20 μL/well CellTiter96® Aqueous One Solution Cell Growth Assay reagent was added to the plate and incubated at 37 °C for 8 h, absorbance was measured at […] and relative cell viability was calculated according to Equation (5). Relative content of inflammatory cytokines (%) = (A1/A2)/A3 × 100%(4) where A1 is the concentrations value of inflammatory cytokines of each group, A2 is the relative cell viability of each group (model group is 100) and A3 is the concentration of inflammatory cytokines of model group. Cell viability rate (%) = B1/B2 × 100%(5) where B1 is the OD value of each fraction group or positive control group and B2 is the OD value of the model control.

3T3-L1 adipocytes = assay: Glucose uptake assay in 3T3-L1 adipocytes; assay type: cell-based, mouse; settings: compounds at 40 µM, 48 h (Figure 11A(b))
Description: Mouse 3T3-L1 preadipocyte cells were maintained in DMEM supplemented with 10% NBCS and 1% P/S at 37 °C in a humidified environment with 5% CO2, and then began starvation when the cells grew to 80% confluence (day 0). To facilitate differentiation to adipocytes, 2-days post-confluent cells were placed in 10% FBS DMEM supplemented with 1% P/S, 0.5 mM IBMX, 1 μM Dex, 1 μM Rosi and 100 nM insulin (day 2). For another three days (day 5), the medium was changed to high glucose DMEM containing 10% FBS, 1% P/S and 100 nM insulin for one day (day 6), and the 3T3-L1 preadipocytes were fully differentiated into mature adipocytes.
Next, differentiated 3T3-L1 adipocytes at a density of 5 × 10^4 cells/well were cultured with DMEM in 96-well plates and divided into the blank control group, model group, insulin group (100 ng/mL), berberine group (10 μg/mL) and compound groups (40 μM). […] After 24 and 48 h of culture, glucose uptake was initiated by the addition of […] medium and 190 μL glucose detection reagent to each well, reaction at 37 °C for 15 min, and the glucose uptake was measured according to the operating instructions of the glucose content determination kit. Following the glucose uptake test, cell viability was detected by CellTiter96® Aqueous One Solution Cell Proliferation Assay. […] Absorbance was measured at 490 nm and relative cell viability was calculated according to Equation (7). […]

pBR322 DNA = assay: Prevention of AAPH-induced DNA oxidative damage; settings: AAPH 20 mM; p < 0.0001 vs model
Description: The effects of T. grandis methanolic extract, different fractions and its compounds 15, 19 and 23 on the prevention of DNA oxidative damage were carried out using the method of Han et al.. Initially, 8 μL pBR322 DNA (50 μg/mL) in PBS (0.1 M, pH 6.8) was mixed with different concentrations of T. grandis fractions and its compounds (12 μL) and incubated in water at 37 °C for 30 min. Then, 5 μL AAPH (20 mM) was added to the mixture and the reaction continued for 60 min. The control group used the same volume of PBS (0.1 M, pH 6.8) to replace AAPH. The pre-treated samples were mixed with 5 × DNA loading buffer, and the mixture (8 μL) was taken for 1.0% agarose gel electrophoresis for 25 min. After electrophoresis, the gels were stained with ethidium bromide for 20 min. Finally, images were taken using a DNA gel imaging system (ChampChemi 610, Beijing sage creation Co., Ltd. Beijing, China).

α-glucosidase = assay: α-Glucosidase inhibition assay (pNPG); assay type: biochemical
Description: The inhibitory effect on α-glucosidase was measured according to the previous report method with slight modifications. The 20 mM sample dissolved in DMSO was diluted to 50 μM in PBS, 10 μL sample was mixed with 50 μL of 0.1 μ/mL α-glucosidase solution in 0.1 M phosphate buffer (pH 6.5) in a 96-well microplate and 10 μL PBS was used as a blank control. The mixture was incubated at 37 °C for 10 min before adding 40 µL of 5 mM 4-nitrophenyl-α-D-glucopyranoside to each well. After 30 min of incubation at 37 °C, the reaction was terminated by adding 50 μL of 0.1 M Na2CO3 to this mixture. The released 4-nitrophenol absorbance measurements were carried out using a microplate reader (SpectraMax190, USA) at 405 nm.

[2] = ABTS radical cation scavenging assay (Trolox equivalent); settings: compounds at 50 μM
Description: The ABTS radical cation (ABTS•+) scavenging activities were conducted in accordance with the instructions for the ABTS kit. The total antioxidant activity values were estimated using the Trolox equivalent antioxidant capacity test. The detection concentration of methanolic extract and different fractions was 80 μg/mL, and the detection concentration of compounds (1–23) was 50 μM. […] Then, 190 μL of ABTS working reagent was mixed with 10 μL sample and incubated at room temperature for 5 min. The absorbance was then measured using a microplate reader at 734 nm, and the scavenging activity was calculated according to Equation (2). The blank control group used DMSO to replace the sample. […] The analysis was performed in triplicates, 1.424, 0.0012 was a constant.

O=C(O)c1cc(O)c(O)c(O)c1 [Compound 23, gallic acid]
FRAP Assay [1]: 1.03 ± 0.01 ^a mmol Trolox/L | effect on TNF-α inflammatory factor level (TNF-α): could decrease | effect on glucose uptake (3T3-L1 adipocytes): significantly promote | concentration at which a protective effect against DNA oxidative damage begins (pBR322 DNA): 0.6 mM | Inhibitory Rate (%) (α-glucosidase; at a concentration of 50 µM): 21.89 ± 3.03 ^c % | IC50 (α-glucosidase; compounds): > 50 µM | ABTS Assay [2]: 0.95 ± 0.02 ^a mmol Trolox/L

From PMC10044725, “Antioxidant, Anti-Inflammatory and Anti-Diabetic Activities of Tectona grandis Methanolic Extracts, Fractions, and Isolated Compounds” (Antioxidants, 2023)
